Measured values reported in the NIST ThermoML archive (doi:10.1021/je050020m).

Assay: xn = mol fraction of the nth substance listed
Settings: Liquid, Vibrating tube method

CCCCCCCCCC [decane] + O=C=O
Settings	mass density [kg/m3]
342.87 K, 9030 kPa, x2 = 0.2369	707.28
342.87 K, 10014 kPa, x2 = 0.4536	716.02
342.87 K, 10017 kPa, x2 = 0.2369	708.4
342.87 K, 11019 kPa, x2 = 0.2369	709.54
342.87 K, 11025 kPa, x2 = 0.4536	717.56
342.87 K, 12003 kPa, x2 = 0.2369	710.62
342.87 K, 12015 kPa, x2 = 0.4536	719.02
342.87 K, 13006 kPa, x2 = 0.4536	720.46
342.87 K, 13017 kPa, x2 = 0.2369	711.73
342.87 K, 14013 kPa, x2 = 0.2369	712.79
342.87 K, 14013 kPa, x2 = 0.4536	721.87
342.87 K, 15001 kPa, x2 = 0.4536	723.23
342.87 K, 15021 kPa, x2 = 0.2369	713.84
342.87 K, 16004 kPa, x2 = 0.2369	714.86
342.87 K, 16029 kPa, x2 = 0.4536	724.63
342.87 K, 17018 kPa, x2 = 0.2369	715.9
342.87 K, 17019 kPa, x2 = 0.4536	725.94
342.87 K, 18016 kPa, x2 = 0.2369	716.89
342.87 K, 18026 kPa, x2 = 0.4536	727.26
342.87 K, 19005 kPa, x2 = 0.2369	717.86
342.87 K, 19018 kPa, x2 = 0.4536	728.54
342.87 K, 20000 kPa, x2 = 0.2369	718.83
342.87 K, 20000 kPa, x2 = 0.4536	729.75
342.87 K, 21007 kPa, x2 = 0.4536	731.02
342.87 K, 21023 kPa, x2 = 0.2369	719.83
342.87 K, 22008 kPa, x2 = 0.2369	720.78
342.87 K, 22021 kPa, x2 = 0.4536	732.28
342.87 K, 23029 kPa, x2 = 0.2369	721.76
342.87 K, 23032 kPa, x2 = 0.4536	733.5
342.87 K, 23992 kPa, x2 = 0.2369	722.74
342.87 K, 24017 kPa, x2 = 0.4536	734.7
342.87 K, 25008 kPa, x2 = 0.2369	723.65
342.87 K, 25029 kPa, x2 = 0.4536	735.91
352.75 K, 14010 kPa, x2 = 0.9663	449.95
352.75 K, 15010 kPa, x2 = 0.9663	494.4
352.75 K, 16020 kPa, x2 = 0.9663	532.74
352.75 K, 17024 kPa, x2 = 0.9663	566.61
352.75 K, 18026 kPa, x2 = 0.9663	594.54
352.75 K, 19015 kPa, x2 = 0.9663	618.22
352.75 K, 20016 kPa, x2 = 0.9663	638.64
352.75 K, 21018 kPa, x2 = 0.9663	656.61
352.75 K, 22006 kPa, x2 = 0.9663	672.26
352.75 K, 23021 kPa, x2 = 0.9663	686.58
352.75 K, 24018 kPa, x2 = 0.9663	699.34
352.75 K, 25017 kPa, x2 = 0.9663	710.94
352.76 K, 14034 kPa, x2 = 0.8114	701.72
352.76 K, 15050 kPa, x2 = 0.8114	707.51
352.76 K, 15994 kPa, x2 = 0.8114	712.45
352.76 K, 17009 kPa, x2 = 0.8114	717.35
352.76 K, 18024 kPa, x2 = 0.8114	722.02
352.76 K, 19033 kPa, x2 = 0.8114	726.33
352.76 K, 20039 kPa, x2 = 0.8114	730.42
352.76 K, 21009 kPa, x2 = 0.8114	734.16
352.76 K, 22013 kPa, x2 = 0.8114	737.84
352.76 K, 23004 kPa, x2 = 0.8114	741.32
352.76 K, 24035 kPa, x2 = 0.8114	744.84
352.76 K, 25042 kPa, x2 = 0.8114	748.08
352.78 K, 2008 kPa, x2 = 0.0551	686.89
352.78 K, 3010 kPa, x2 = 0.0551	688.04
352.78 K, 4018 kPa, x2 = 0.0551	689.18
352.78 K, 5014 kPa, x2 = 0.0551	690.28
352.78 K, 6015 kPa, x2 = 0.0551	691.42
352.78 K, 7011 kPa, x2 = 0.0551	692.46
352.78 K, 8024 kPa, x2 = 0.0551	693.62
352.78 K, 8988 kPa, x2 = 0.0551	694.56
352.78 K, 10035 kPa, x2 = 0.0551	695.65
352.78 K, 11021 kPa, x2 = 0.0551	696.68
